16 molecules from US7863438B2 (Yamasa Corporation, priority 2005, dated 2011) can be followed below.

Each structure is given as a SMILES string. Where a name gives a salt, the structure may show the parent alone. Read-outs that look alike come from different tables or passages of the source.

Data set [1] can be described thus: Ambient-temperature stability of PAPS lithium salt in aqueous solution or in the form of powder (HPLC determination of PAPS). As for the experimental part:
ODS-[…] column (product of YMC) • Eluent: 50 mM Aqueous potassium dihydrogenphosphate solution • Flow rate: 0.6 mL/minute • Detection: Absorbance (A) at 270 nm • Temperature: 20° C. The present invention will next be specifically described in detail with reference to Referential Example and Example. However, it will be understood that the present invention is not limited to the Example. Quantitative determination of PAPS was performed under the aforementioned HPLC conditions. Ambient-temperature stability of a PAPS lithium salt (product of Calbiochem) was evaluated in an aqueous solution or in the form of powder as follows. […] As used herein, “percent undecomposed” or “percentage of undecomposed PAPS” is the ratio of the remaining amount of PAPS to the initial amount thereof.

[2] abbreviates: powder 10 mg, desiccator (relative humidity: 10%), ambient temperature (23±2° C.), seven days.

`Nc1ncnc2c1ncn2[C@@H]1O[C@H](COP(=O)(O)OS(=O)(=O)O)[C@@H](OP(=O)(O)O)[C@H]1O` [L-Arginine salt, 3′-phosphoadenosine 5′-phosphosulfate]: the “Undecomposed PAPS (%)” value is 57%.

Consider `Nc1ncnc2c1ncn2[C@@H]1O[C@H](COP(=O)(O)OS(=O)(=O)O)[C@@H](OP(=O)(O)O)[C@H]1O` [Piperidine salt, 3′-phosphoadenosine 5′-phosphosulfate], for which the “Undecomposed PAPS (%)” value is recorded as 92%.

In the case of `Nc1ncnc2c1ncn2[C@@H]1O[C@H](COP(=O)(O)OS(=O)(=O)O)[C@@H](OP(=O)(O)O)[C@H]1O` [L-Lysine salt, 3′-phosphoadenosine 5′-phosphosulfate], the “Undecomposed PAPS (%)” value was determined as 27%.

Turning to `Nc1ncnc2c1ncn2[C@@H]1O[C@H](COP(=O)(O)OS(=O)(=O)O)[C@@H](OP(=O)(O)O)[C@H]1O` [Ethanolamine salt, 3′-phosphoadenosine 5′-phosphosulfate], the “Undecomposed PAPS (%)” value under setting [2] was 13%.

As for `Nc1ncnc2c1ncn2[C@@H]1O[C@H](COP(=O)(O)OS(=O)(=O)O)[C@@H](OP(=O)(O)O)[C@H]1O` [Trimethylamine salt, 3′-phosphoadenosine 5′-phosphosulfate], the “Undecomposed PAPS (%)” value stood at 89%.

As for `Nc1ncnc2c1ncn2[C@@H]1O[C@H](COP(=O)(O)OS(=O)(=O)O)[C@@H](OP(=O)(O)O)[C@H]1O` [Imidazole salt, 3′-phosphoadenosine 5′-phosphosulfate], the “Undecomposed PAPS (%)” value under setting [2] turned out to be 2.9%.

In the case of `Nc1ncnc2c1ncn2[C@@H]1O[C@H](COP(=O)(O)OS(=O)(=O)O)[C@@H](OP(=O)(O)O)[C@H]1O` [L-Histidine salt, 3′-phosphoadenosine 5′-phosphosulfate], under setting [2], the “Undecomposed PAPS (%)” value was found to be 98%.

For the molecule `Nc1ncnc2c1ncn2[C@@H]1O[C@H](COP(=O)(O)OS(=O)(=O)O)[C@@H](OP(=O)(O)O)[C@H]1O` [Diethylamine salt, 3′-phosphoadenosine 5′-phosphosulfate], under setting [2], the “Undecomposed PAPS (%)” value is listed as 96%.

For `Nc1ncnc2c1ncn2[C@@H]1O[C@H](COP(=O)(O)OS(=O)(=O)O)[C@@H](OP(=O)(O)O)[C@H]1O` [Triethylamine salt, 3′-phosphoadenosine 5′-phosphosulfate], the “Undecomposed PAPS (%)” value under setting [2] is on record as 100%.

For `Nc1ncnc2c1ncn2[C@@H]1O[C@H](COP(=O)(O)OS(=O)(=O)O)[C@@H](OP(=O)(O)O)[C@H]1O` [Ammonium salt, 3′-phosphoadenosine 5′-phosphosulfate], the “Undecomposed PAPS (%)” value under setting [2] is reported as 4.1%.

On to `Nc1ncnc2c1ncn2[C@@H]1O[C@H](COP(=O)(O)OS(=O)(=O)O)[C@@H](OP(=O)(O)O)[C@H]1O` [Putrescine salt, 3′-phosphoadenosine 5′-phosphosulfate], for which, under setting [2], the “Undecomposed PAPS (%)” value was found to be 80%.

For `Nc1ncnc2c1ncn2[C@@H]1O[C@H](COP(=O)(O)OS(=O)(=O)O)[C@@H](OP(=O)(O)O)[C@H]1O` [Ethylamine salt, 3′-phosphoadenosine 5′-phosphosulfate], the “Undecomposed PAPS (%)” value was found to be 48%.

`Nc1ncnc2c1ncn2[C@@H]1O[C@H](COP(=O)(O)OS(=O)(=O)O)[C@@H](OP(=O)(O)O)[C@H]1O` [Potassium salt, 3′-phosphoadenosine 5′-phosphosulfate]: the “Undecomposed PAPS (%)” value under setting [2] is on record as 22%.

With `Nc1ncnc2c1ncn2[C@@H]1O[C@H](COP(=O)(O)OS(=O)(=O)O)[C@@H](OP(=O)(O)O)[C@H]1O` [Sodium salt, 3′-phosphoadenosine 5′-phosphosulfate], under setting [2], the “Undecomposed PAPS (%)” value was determined as 64%.

As to `Nc1ncnc2c1ncn2[C@@H]1O[C@H](COP(=O)(O)OS(=O)(=O)O)[C@@H](OP(=O)(O)O)[C@H]1O` [Polyethyleneimine salt, 3′-phosphoadenosine 5′-phosphosulfate], under setting [2], the “Undecomposed PAPS (%)” value came to 94%.

As for `Nc1ncnc2c1ncn2[C@@H]1O[C@H](COP(=O)(O)OS(=O)(=O)O)[C@@H](OP(=O)(O)O)[C@H]1O` [Lithium salt, 3′-phosphoadenosine 5′-phosphosulfate], the “Undecomposed PAPS (%)” value under setting [2] was determined as 65%. For the same molecule, the “Undecomposed of PAPS (%)” value is given as above 99% in data set [1] (aqueous solution 10 mg/mL, standing still at 4° C. for seven days); 96% in data set [1] (aqueous solution 10 mg/mL, standing still at 23° C. for seven days); 89% in data set [1] (powder (10 mg), standing still at 4° C. for seven days); 65% in data set [1] (powder (10 mg), standing still at 23° C. for seven days). Moreover, the “stability in aqueous solution (in words)” value in data set [1] (aqueous solution, seven days) is recorded as “relatively stable”. For the same molecule, the “decomposed (%)” value in data set [1] (powder, ambient temperature, seven days) is 35%. Besides, the “stability in the form of powder (in words)” value in data set [1] (powder, seven days) was “very unstable”.
